One assay deals with HEp-2 cells. Put plainly: Anti-proliferative assay on HEp-2 cells, MTT method. In kind it is cell-based, human. The following applies: 3 μg/mL. As for the experimental part: For the characterization of the antiproliferative activity of MG2327 “in vitro” a panel of human cell lines was evaluated (table 1). A total of 2000 cells, except for PBMC (20000), were seeded in 96 wells culture wells, and different concentrations of MG2327 were added. After 72 hours, the number of survival cells was estimated by addition of MTT (Skehan, P., Storeng, R., Scudiero, D., Monks, A., Mcmahon, J., Vistica, D., Warren, J. T., Bokesch, H., Kenney, S. and BOYD, M. R. 1990. J Natl Cancer Inst. 82:1107). The soluble formazan products were detected at 540 nm in a multiscan plate reader.
In general terms: Formazan colour is commonly taken as a measure of viable cells.
`N.N.[Cl][Pt][Cl]` [Cisplatin, reference compound] came in with a proliferation of 40%.

Compound `COc1cccc2c1C(=O)c1c(O)c3c(c(O)c1C2=O)C[C@@](O)(C(=O)CO)C[C@@H]3O[C@H]1C[C@H](N)[C@H](O)[C@H](C)O1` [DXR, Doxorubicine, reference compound] returned a proliferation of 40%.

The compound `CC(=O)O[C@H]1C(=O)[C@@]2(C)[C@H]([C@H](OC(=O)c3ccccc3)[C@]3(O)C[C@H](OC(=O)[C@H](O)[C@@H](NC(=O)c4ccccc4)c4ccccc4)C(C)=C1C3(C)C)[C@]1(OC(C)=O)CO[C@@H]1C[C@@H]2O` [Taxol, reference compound] came in with a proliferation of 40%.

For `CC[C@]1(O)C[C@H]2CN(CCc3c([nH]c4ccccc34)[C@@](C(=O)OC)(c3cc4c(cc3OC)N(C=O)[C@H]3[C@@](O)(C(=O)OC)[C@H](OC(C)=O)[C@]5(CC)C=CCN6CC[C@]43[C@@H]65)C2)C1` [Vincristine, reference compound], the proliferation was 40%.

Take `CC[C@]1(O)C[C@@H]2CN(CCc3c([nH]c4ccccc34)[C@@](C(=O)OC)(c3cc4c(cc3OC)N(C)[C@H]3[C@@](O)(C(=O)OC)[C@H](OC(C)=O)[C@]5(CC)C=CCN6CC[C@]43[C@@H]65)C2)C1` [Vinvlastine, reference compound]: the proliferation is reported as 40%.

The same assay, now with this note: same conditions as 3 μg/mL comparison.
On to `Nc1ccn([C@@H]2O[C@H](CO)[C@@H](O)[C@@H]2O)c(=O)n1` [Ara C, reference compound], for which the effect on proliferation result was “do not showed effect”.

With `O=P1(N(CCCl)CCCl)NCCCO1` (stereo not drawn) [Ciclophosfamide, reference compound], the effect on proliferation result is recorded as “do not showed effect”.

Take `CN(Cc1cnc2nc(N)nc(N)c2n1)c1ccc(C(=O)N[C@@H](CCC(=O)O)C(=O)O)cc1` [Metotrexate, reference compound]: the effect on proliferation entry was “do not showed effect”.

Bleomicine [reference compound]: the effect on proliferation entry is “do not showed effect”.
